According to patent US20020137154A1, “Methods for improving cell growth and alcohol production during fermentation” (priority 2000, published 2002):

How the values were obtained:
[1] = test system: recombinant Escherichia coli KO11; assay: Batch fermentation of E. coli KO11 in 1% CSL medium and glucose with nutrient additives: ethanol production and cell growth; format: cell-based; details: additive 2 g/L unless indicated; for Ethanol Production Maximum / Ethanol yield / Initial Growth (OD @ 24 h) OD / Maximum Cell Density OD / Volumetric Productivity Average / Volumetric Productivity Maximum: 1% CSL+glucose; for activity at 2000 µg/mL: Escherichia coli
Method: (§1) Two types of media were tested: 1% CSL and Luria broth (LB). Each contained 97 g of either xylose or glucose per liter. Luria Broth consists of, per liter: 10 g Difco® Tryptone, 5 g Difco® Yeast Extract and 5 g NaCl. The 1% CSL medium consists of Corn Steep Liquor (1% w/v) plus mineral salts (mineral salts per liter: 1 g of KH2PO4. 0.5 g of K2HPO4, 3.1 g of (NH4)2SO4, 0.4 g of MgCl2·6H2), and 20 mg FeCl3·6H2O).
(§2) Luria Broth was prepared by autoclaving a 2× nutrient stock containing, per liter: 20 g Difco® Tryptone, 10 g Difo® Yeast Extract, and 10 g NaCl. Sugars (xylose or glucose) were autoclaved separately. A 1% CSL medium was prepared as follows: Commercial Corn Steep Liquor (CSL; 50% dry weight/50% water) was diluted with tap water to make a 20X stock containing 100 g dry weight of Corn Steep Liquor/L and was adjusted to pH 7.2 with NaOH (50%). After sterilization by autoclaving, the 20X CSL stock was clarified by centrifugation at 5000×g for 10 minutes. Magnesium was added as a 100× stock solution (40 g/L MgCl2·6H2O). Iron was added as a 1000× stock solution made by dissolving 20 g FeCl3·6H2O in 175 mL of HCl and adjusting to 1 L with sterile water. Nitrogen, sulfur and phosphorus were added using a 20× stock solution containing the following (per liter): 20 g of KH2PO4, 10 g of K2HPO4 and 62 g of (NH4)2SO4. Stock solutions containing minerals were sterilized separately by autoclaving. Final media was prepared by adding 750 mL of water to 1 L bottle containing 100 g of xylose or glucose.
(§3) Inocula were grown in same media used for fermentation and were prepared as follows. Three colonies from a fresh plate were used to inoculate seed cultures: 250-mL flask containing 100 mL medium. These cultures were grown with agitation (120 rpm) for 12-16 hours at 35° C. to a final OD550nm of approximately 2.0-2.5. Cells were harvested by centrifugation at 5000×g for 5 minutes, and resuspended in fresh media to an OD550nm of 0.1. The resulting suspension was distributed into 500-mL beakers containing 345 ml each of fermentation medium. Acetaldehyde was added as indicated. Batch fermentations (35° C., 100 rpm) were maintained at pH 6.5 by the automatic addition of 2N KOH. Cell mass, ethanol, and base addition (2N KOH) were recorded during 96 hours of incubation.
Equivalent amounts of distilled water were added instead of the acetaldehyde in control experiments.
(§4) Additives (e.g., as listed in Table 1) were dissolved in 5 mL di-H2O. Solutions with pH lower than 5 were neutralized to pH 6.5 with 2N KOH. Nutritional supplements were then filter-sterilized (0.45 μm filter disk) directly into the fermentation vessel containing the culture. The final concentration of all additives in the culture medium was 2 g/L unless otherwise indicated.
(§5) Cell mass was estimated by measuring OD550nm using Baush & Lomb® Spectronic 70 spectrophotometer. […] Ethanol was measured by gas chromatography using a Varian® 3400 CX gas chromatograph with 1-propanol as an internal standard.
(§6) Tables 1, 3, and 5 show time to completion of fermentation, ethanol production, and volumetric productivity of the fermentation for all concentrations of the compound and the control. Maximum ethanol production is shown in grams/liter (g/L). The ethanol yield is shown in grams of ethanol/grams of added sugar. Maximum volumetric productivity is shown in grams ethanol/(liter)(hour). The average productivity is calculated form the start of fermentation to the completion of fermentation is grams ethanol/(liter)hour).
Tables 2, 4, and 6 show the initial growth of the cells (OD taken after the first 24 hours of fermentation) and the maximum cell density (the time which culture reaches the maximum OD value).
Acetaldehyde was added to the fermentation medium at five different concentrations and time points. […] Where two additions are indicated, the first volume was added at the start of fermentation and the second was added after 8 hours of fermentation.

[2] = test system: recombinant Escherichia coli KO11; assay: Batch fermentation of E. coli KO11 in 1% CSL medium and xylose with nutrient additives: ethanol production and cell growth; format: cell-based; details: additive 2 g/L unless indicated; for Ethanol Production Maximum / Ethanol yield / Initial Growth (OD @ 24 h) OD / Maximum Cell Density OD / Maximum Cell Density Time / Volumetric Productivity Average / Volumetric Productivity Maximum: 1% CSL+xylose; for activity at 2000 µg/mL: Escherichia coli
Method: as §1, §2
as §3, with “incubation. […]” for “incubation.”
as §4, §5, §6
Tables 2, 4, and 6 show the initial growth of the cells (OD taken after the first 24 hours of fermentation) and the maximum cell density (the time which culture reaches the maximum OD value). […]

[3] = 24 h, read-out: Initial Growth (OD @ 24 h) % Control, 1% CSL+glucose
[4] = read-out: Ethanol Production Maximum % Control, 1% CSL+glucose
[5] = read-out: Maximum Cell Density % Control, 1% CSL+glucose
[6] = read-out: Volumetric Productivity Average % Control, 1% CSL+glucose
[7] = read-out: Volumetric Productivity Maximum % Control, 1% CSL+glucose
[8] = 24 h, read-out: Initial Growth (OD @ 24 h) % Control, 1% CSL+xylose
[9] = read-out: Ethanol Production Maximum % Control, 1% CSL+xylose
[10] = read-out: Maximum Cell Density % Control, 1% CSL+xylose
[11] = read-out: Volumetric Productivity Average % Control, 1% CSL+xylose
[12] = read-out: Volumetric Productivity Maximum % Control, 1% CSL+xylose

Compound	Ethanol Production Maximum [1] [g/L]	Ethanol yield [1]	Initial Growth (OD @ 24 h) OD [1] [OD]	Maximum Cell Density OD [1] [OD]	Volumetric Productivity Average [1]	Volumetric Productivity Maximum [1]	activity at 2000 µg/mL [1, 3] [%]	activity at 2000 µg/mL [1, 4] [%]	activity at 2000 µg/mL [1, 5] [%]	activity at 2000 µg/mL [1, 6] [%]	activity at 2000 µg/mL [1, 7] [%]	Ethanol Production Maximum [2] [g/L]	Ethanol yield [2]	Initial Growth (OD @ 24 h) OD [2] [OD]	Maximum Cell Density OD [2] [OD]	Maximum Cell Density Time [2] [h]	Volumetric Productivity Average [2]	Volumetric Productivity Maximum [2]	activity at 2000 µg/mL [2, 8] [%]	activity at 2000 µg/mL [2, 9] [%]	other results
C[C@H](N)C(=O)O [Alanine, alanine]	34.37	0.354 grams of ethanol/grams of added sugar	2.08	2.68	0.358 grams ethanol/(liter)(hour)	0.468 grams ethanol/(liter)(hour)	78	92.9	99.8	92.9	91.1	21.66	0.223 grams of ethanol/grams of added sugar	1.66	1.73	48	0.226 grams ethanol/(liter)(hour)	0.240 grams ethanol/(liter)(hour)	81.3	72	activity at 2000 µg/mL [2, 10]: 68.8%; activity at 2000 µg/mL [2, 11]: 72%; activity at 2000 µg/mL [2, 12]: 65.2%
N[C@@H](CC(=O)O)C(=O)O [Aspartate, aspartate]	41.79	0.430 grams of ethanol/grams of added sugar	2.86	3.79	0.580 grams ethanol/(liter)(hour)	0.759 grams ethanol/(liter)(hour)	107	113	141	151	148	27.90	0.287 grams of ethanol/grams of added sugar	1.76	2.45	72	0.291 grams ethanol/(liter)(hour)	0.304 grams ethanol/(liter)(hour)	86.3	92.7	activity at 2000 µg/mL [2, 10]: 97.2%; activity at 2000 µg/mL [2, 11]: 92.7%; activity at 2000 µg/mL [2, 12]: 82.4%
O=C(O)CC(O)(CC(=O)O)C(=O)O [Citrate]	32.87	0.338 grams of ethanol/grams of added sugar	2.43	2.58	0.342 grams ethanol/(liter)(hour)	0.502 grams ethanol/(liter)(hour)	91	88.9	96	88.9	97.8	28.80	0.296 grams of ethanol/grams of added sugar	2.12	2.47	96	0.300 grams ethanol/(liter)(hour)	0.339 grams ethanol/(liter)(hour)	104	95.7	activity at 2000 µg/mL [2, 10]: 98.1%; activity at 2000 µg/mL [2, 11]: 95.7%; activity at 2000 µg/mL [2, 12]: 92%
